{"source": "paper PMC10709007", "about": "“GPR162 is a beta cell CART receptor” (iScience, 2023)", "key": {"INS-1 832/13 cells": {"tested_on": "INS-1 832/13 cells", "experiment": "Glucose-stimulated insulin secretion (GSIS) in INS-1 832/13", "format": "cell-based, rat", "conditions": "10^-7M CARTp55-102 24 h before GSIS, 16.7 mM glucose, 10 μM IBMX", "procedure": "GSIS was measured 72 h after Cartpt KD. INS-1 832/13 cells were washed twice and incubated for 2 h in 2.8 mM glucose HEPES-buffered saline solution (HBSS): 114 mM NaCl, 4.7 mM KCl, 1.2 mM KH2PO4, 1.16 mM MgSO4, 20 mM HEPES, 2.5 mM CaCl2, 25.5 mM NaHCO3, 0.2% BSA, pH 7.2, followed by 1-h stimulation in the same buffer containing 2.8 mM, 16.7 mM glucose, 16.7 mM glucose and 10 μM IBMX. In a separate experiment, control and Gpr162 KD cells were incubated with 10^−7M CARTp55-102 for 24 h before GSIS. Insulin concentrations in supernatant were determined using ELISA (Mercodia, Uppsala, Sweden) and were normalized to total protein content of each well (determined by Bio-Rad protein assay, BioRad).\nInsulin from INS-1 832/13 cells and mouse islets were analyzed using ELISA (Mercodia)."}, "rodent and human islets": {"tested_on": "rodent and human islets", "conditions": "in vivo and in vitro/ex vivo; cited from earlier work", "from_the_text": "However, much earlier, a fragment of the CART peptide was identified in extracts of sheep hypothalamus.[2] CART was later found to be expressed also in pancreatic islet cells and in nerve fibers innervating the islets.[3]^,[4]^,[5] […] Since then, multiple biological effects of CART have been established.[4]^,[7] […] However, the identity of the CART receptor mediating this effect in beta cells is unknown to date.[15] Here, we provide evidence for GPR162 as a CART receptor in beta cells."}}, "note": "Where no end group is shown, it is not given here."}
{"substance": "CARTp55-102: Rat, mouse CARTp55-102 (Phoenix Pharmaceuticals, Cat#003-62); human form Cat#003-60; cocaine- and amphetamine-regulated transcript peptide (IPIYEKKYGQVPMCDAGEQCAVRKGARIGKLCDCPRGTSCNSFLLKCL; ends and bridges not checked; cysteine pairing not given here)", "values": [{"measurement": "Insulinotropic effect of CARTp55-102 on glucose and IBMX-stimulated secretion in Gpr162 KD cells", "setting": "INS-1 832/13 cells; n = 6", "value": "abolished"}, {"measurement": "Insulinotropic effect of CARTp55-102 on glucose and IBMX-stimulated secretion in Gpr162 KD cells", "setting": "INS-1 832/13 cells; n = 6, listed as CART", "value": "near-complete abolishment"}, {"measurement": "Glucagon secretion", "setting": "rodent and human islets", "value": "reduces glucagon secretion"}, {"measurement": "Insulin secretion", "setting": "rodent and human islets", "value": "increases insulin secretion"}]}
